Reference: US10702498B2 (priority 2015, dated 2020)
Entries after “also recorded” stand apart in the source; their conditions may differ. Read-outs that look alike come from different tables or passages of the source.

What was measured:
[1] = molecular target: hMOR + Gqi5 (Homo sapiens (Human), UniProt P35372); assay: IP accumulation assay; format: cell-based; details: % morphine
[2] = molecular target: hKOR (Homo sapiens (Human), UniProt P41145); assay: Receptor binding, [3H]diprenorphine
[3] = molecular target: humanDOR (Homo sapiens (Human), UniProt P41143); assay: Receptor binding, [3H]diprenorphine
Sequence of humanDOR (P41143 whole entry): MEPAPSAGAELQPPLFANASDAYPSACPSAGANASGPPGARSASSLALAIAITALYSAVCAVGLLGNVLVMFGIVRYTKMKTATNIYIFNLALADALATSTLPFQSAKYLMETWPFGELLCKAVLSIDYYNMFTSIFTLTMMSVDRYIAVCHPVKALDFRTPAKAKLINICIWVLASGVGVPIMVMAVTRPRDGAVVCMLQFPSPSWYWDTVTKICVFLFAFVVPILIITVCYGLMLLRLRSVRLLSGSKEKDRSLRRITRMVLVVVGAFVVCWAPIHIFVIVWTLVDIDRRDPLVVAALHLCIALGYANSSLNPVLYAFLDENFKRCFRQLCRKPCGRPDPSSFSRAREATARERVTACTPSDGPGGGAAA

[4] = molecular target: MOR (Homo sapiens (Human), UniProt P35372); assay: Functional annotation (MOR agonist / antagonist), method not stated
[5] = molecular target: human μOR β-arrestin2 recruitment + GRK2 (Homo sapiens (Human), UniProt P35372); assay: β-Arrestin2 recruitment with GRK2 co-expression (BRET); format: cell-based
[6] = molecular target: T1, μOR (Homo sapiens (Human), UniProt P35372); assay: cell-based; format: cell-based
T1 sequence (P35372 whole entry): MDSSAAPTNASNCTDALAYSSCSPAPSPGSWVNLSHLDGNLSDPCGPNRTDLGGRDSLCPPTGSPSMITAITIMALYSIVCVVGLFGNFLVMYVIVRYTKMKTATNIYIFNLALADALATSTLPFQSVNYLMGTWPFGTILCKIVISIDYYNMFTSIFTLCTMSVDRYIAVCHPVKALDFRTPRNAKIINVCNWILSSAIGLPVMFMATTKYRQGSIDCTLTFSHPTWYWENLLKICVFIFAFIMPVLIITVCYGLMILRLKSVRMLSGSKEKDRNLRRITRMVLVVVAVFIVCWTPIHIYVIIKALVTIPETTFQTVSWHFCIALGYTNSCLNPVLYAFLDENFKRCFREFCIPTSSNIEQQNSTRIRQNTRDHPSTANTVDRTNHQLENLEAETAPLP

[7] = molecular target: T2, μOR β-arrestin2 recruitment (Homo sapiens (Human), UniProt P35372); assay: β-Arrestin2 recruitment without GRK2 co-expression (BRET); format: cell-based
[8] = molecular target: T2, μOR β-arrestin2 recruitment; assay: β-Arrestin recruitment, PathHunter enzyme complementation assay (DiscoveRx OPRM1 CHO-K1); format: cell-based
[9] = molecular target: T1, μOR; assay: Receptor internalization (PathHunter GPCR internalization, U2OS cells); format: cell-based
[10] = system: C57BL/6J mice; assay: Hot-plate analgesia assay; format: in vivo; details: mouse
[11] = Pharmacokinetics: serum and brain concentrations; format: in vivo; details: mouse
Experimental: Studies were performed by the Preclinical Therapeutics Core and the Drug Studies Unit at the University of California San Francisco. […] All studies were performed with approved mouse protocols from the institutional animal care and use committees.

[12] = system: mice; assay: Conditioned place preference; format: in vivo; details: mouse
Experimental: On day 1 (preconditioning day), mice were placed in the central chamber and allowed to explore freely for 30 minutes. Time spent in each compartment was used to estimate baseline chamber preferences and mice showing specific chamber bias more than 70% were not studied further. On days 2-9 (conditioning days) mice were injected with either vehicle or drug and paired with either the white mesh or the black rod chambers. All mice received vehicle on days 2, 4, 6, 8 and drug on days 3, 5, 7, 9. On day 10 (test day), mice were again placed in the central chamber as on day 1 and allowed to explore freely for 30 minutes. Time spent in each chamber was expressed as percentage preference.

[13] = molecular target: δOR (Homo sapiens (Human), UniProt P41143); assay: Gi/o Glosensor assay
[14] = system: C57BL/6J mice; assay: Tail-flick assay; format: in vivo; details: mouse
[15] = system: mice; assay: Accumulated fecal boli quantification (constipation); details: mouse
[16] = molecular target: T1, μOR; assay: Calcium release (FLIPR); format: cell-based
Experimental: Calcium release was measured using a FLIPR^TETRA fluorescence imaging plate reader (Molecular Devices). Calcium release experiments were run in parallel to Gi/o Glosensor experiments with the same HEKT cells transfected with μOR, except cells for FLIPR were plated in poly-lysine coated 384-well black clear bottom cell culture plates. […] Dye was incubated for 1 hour at 37° C. Afterwards, cells were equilibrated to room temperature, and fluorescence in each well was read for the initial 10 seconds to establish a baseline. Afterwards, 10 μL of drug (3×) was added per well and the maximum-fold increase in fluorescence was determined as fold-over-baseline. Drug solutions used for the FLIPR assay were exactly the same as used for Gi/o Glosensor experiments. To activate endogenous Gq-coupled receptors as a positive control for calcium release, TFLLR-NH2 (10 μM, PAR-1 selective agonist) was used.

[17] = molecular target: T3, κOR (Homo sapiens (Human), UniProt P41145); assay: Gi/o Glosensor assay (agonist and antagonist mode)
[18] = system: μOR Gi/o versus β-arrestin signaling; assay: Ligand bias calculation (operational model)
[19] = system: mice; assay: Catalepsy bar test; details: mouse
[20] = system: mice; assay: Formalin injection assay; format: in vivo; details: mouse
[21] = system: mice; assay: Open field locomotor response; details: mouse
[22] = system: 316 other GPCRs; assay: PRESTO-Tango GPCRome β-arrestin recruitment counter-screen; format: cell-based; details: 10 μM screen, hits re-tested in full dose-response
From the text: Potential positive receptor hits were defined as those that increase the relative luminescence value by two fold. […] A number of false positive hits were discounted by this approach.

[23] = molecular target: nociceptin receptor (Homo sapiens (Human), UniProt P41146); assay: Gi/o Glosensor assay
[24] = system: Oprm1−/− and wild-type C57Bl/6J mice; assay: Hot-plate: affective/reflexive subcategorization and μOR knockout mice; format: in vivo, mouse
[25] = molecular target: T1, μOR; assay: BRET-based cAMP accumulation assay (Gi/o signaling, SAR of PZM21-29); format: cell-based
[26] = system: mice; assay: Whole body plethysmography (respiration); details: mouse; equianalgesic doses PZM21 40 mg/kg, TRV130 […], morphine 10 mg/kg
[27] = molecular target: T1, μOR; assay: biochemical; format: binding
[28] = molecular target: T1, μOR; details: no Ki given
[29] = molecular target: T3, κOR; format: binding; details: no Ki given

Sequence of hKOR (P41145 whole entry): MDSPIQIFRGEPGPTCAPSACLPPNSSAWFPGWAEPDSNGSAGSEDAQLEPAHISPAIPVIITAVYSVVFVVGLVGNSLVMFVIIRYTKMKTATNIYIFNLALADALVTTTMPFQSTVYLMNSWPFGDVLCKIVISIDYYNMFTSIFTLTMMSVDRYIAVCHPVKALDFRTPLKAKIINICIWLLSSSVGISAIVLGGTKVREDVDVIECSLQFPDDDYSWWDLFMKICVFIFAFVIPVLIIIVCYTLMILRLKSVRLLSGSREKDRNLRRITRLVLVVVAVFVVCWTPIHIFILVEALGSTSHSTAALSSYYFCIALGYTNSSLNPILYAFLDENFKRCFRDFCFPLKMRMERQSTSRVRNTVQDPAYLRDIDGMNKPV

C[C@H](Cc1ccsc1)NC(=O)NC[C@H](Cc1ccc(O)cc1)N(C)C (stereo in doubt) [BD 122LR]
hMOR + Gqi5 IP accumulation assay efficacy a [1]: a: 17%
Ki ([2]; binding affinity Ki [nM] hKOR): 190 nM
Ki ([2]; hKOR [3H]dyprenorphine Ki): 190 ± 23 nM
Ki [3]: 88 ± 16 nM
Ki ([3]; read-out: binding affinity Ki [nM] hDOR): 88 nM

Cc1cc(O)cc(C)c1C[C@@H](CNC(=O)N[C@H](C)Cc1ccsc1)N(C)C [BD 131LR, 1-((S)-2-(dimethylamino)-3-(4-hydroxy-2,6-dimethylphenyl)propyl)-3-((R)-1-(thiophen-3-yl)propan-2-yl)urea]
hMOR + Gqi5 IP accumulation assay efficacy a @ 10 μM ([1]; @ 10 μM): @ 10 μM a: 10%

CN(C)[C@H](CNC(=O)NCCc1ccsc1)Cc1ccc(O)cc1 [DD 16, (S)-1-(2-(dimethylamino)-3-(4-hydroxyphenyl)propyl)-3-(2-(thiophen-3-yl)ethyl)urea]
EC50 ([4]; read-out: MOR agonist (potency printed under structure)): 58 nM
Arrestin + GRK2 pEC50 ([5]; GRK2 co-expressed): 6.843
Gi/o pEC50 [6]: 8.122
Arrestin pEC50 [7]: 6.387

Cc1cc(O)cc(C)c1C[C@@H](CNC(=O)NCCc1ccsc1)N(C)C [DD 34L, (S)-1-(2-(dimethylamino)-3-(4-hydroxy-2,6-dimethylphenyl)propyl)-3-(2-(thiophen-3-yl)ethyl)urea]
hMOR + Gqi5 IP accumulation assay efficacy a [1]: a: <5%
functional mode [4]: DD 34L (ANTAGONIST) [drawing 446]

Cc1cc(O)cc(C)c1C[C@@H](CNC(=O)NCCN1C(=O)C=CC1=O)N(C)C [DD 144, (S)-1-(2-(dimethylamino)-3-(4-hydroxy-2,6-dimethylphenyl)propyl)-3-(2-(2,5-dioxo-2,5-dihydro-1H-pyrrol-1-yl)ethyl)urea]
functional mode [4]: DD 144 (ANTAGONIST, Covalent) [drawing 452]

C[C@@H](Cc1ccsc1)NC(=O)NC[C@H](Cc1ccc(O)cc1)N(C)C [PZM21, 1-[(S)-2-(Dimethylamino)-3-(4-hydroxyphenyl)propyl]-3-((S)-1-(thiophen-3-yl)propan-2-yl)urea]
β-arrestin2 recruitment in PathHunter assay [8]: undetectable β-arrestin2 recruitment; also recorded: minimal recruitment of β-arrestin2; also recorded: no detectable 3-arrestin2 recruitment
μOR internalization [9]: minimal level of μOR internalization compared to DAMGO and morphine
hot-plate analgesia ([10]; s.c.): dose-dependent analgesia
hot-plate percent maximal possible effect (% MPE) ([10]; 15 minutes after the highest dose tested): 87%
hMOR + Gqi5 IP accumulation assay efficacy a [1]: a: 73%
Ki ([2]; hKOR [3H]dyprenorphine Ki): 33 ± 5.6 nM
arrestin recruitment with over-expressed GRK2 [5]: weak arrestin recruitment efficacy compared to DAMGO and even to morphine; also recorded: we observe arrestin recruitment
blood brain barrier penetration [11]: substantial fraction of PZM21 crosses the blood brain barrier
conditioned place preference [12]: does not induce a conditioned place preference response
Emax ([13]; read-out: Gi/o (Glosensor) Emax (%) δOR): 78%
weaker δOR agonist than μOR agonist ([13]; selectivity): 500 fold
tail-flick analgesia [14]: no activity in a tail flick assay; also recorded: no analgesic effect
constipation effect / defecation [15]: reduced constipatory effects as compared to morphine; also recorded: substantially less than morphine
calcium release [16]: no activity was observed in a calcium release assay
activity at KOR (antagonist mode, words) [17]: antagonist at KOR
κOR agonist activity [17]: no detectable KOR or nociceptin receptor agonist activity; also recorded: lack of agonist activity
Gi/o activation / μOR agonist activity [6]: robust μOR agonist activity
effect on cAMP levels with pertussis toxin [6]: eliminated by pertussis toxin
β-arrestin2 recruitment in the absence of GRK2 [7]: no β-arrestin2 recruitment
signaling bias [18]: undistinguishable from TRV130; also recorded: substantially exceeded that of herkinorin
cataleptic effect [19]: does not induce cataleptic behavior; also recorded: does not reflect a cataleptic effect
formalin injection nociception [20]: active in a formalin injection nociception assay
open field locomotion [21]: does not induce open field locomotion; also recorded: no apparent effect on locomotion versus vehicle
agonism against 316 other GPCRs [22]: no potent activity was confirmed with a full dose-response experiment
Ki [3]: 470 ± 98 nM
nociceptin receptor agonist activity [23]: no detectable KOR or nociceptin receptor agonist activity
analgesia in μOR knockout mice ([24]; hot-plate): genetic knockout of the μOR completely ablates the observed analgesic response
affective versus reflexive component of pain ([24]; mouse hot-plate): only modulates the affective component of pain; also recorded: solely confers analgesia to the affective component of pain

CN(C)[C@H](CNC(=O)NCCc1cn(CCSSCCN=[N+]=[N-])nn1)Cc1ccc(O)cc1 [PZM29, (S)-1-(2-(1-(2-((2-Azidoethyl)disulfanyl)ethyl)-1H-1,2,3-triazol-4-yl)ethyl)-3-(2-(dimethylamino)-3-(4-hydroxyphenyl)propyl)urea×CF3COOH]
agonist efficacy / potency in Gi/o signaling assay [25]: retains its efficacy as an agonist

COc1ccsc1CNCC[C@@]1(c2ccccn2)CCOC2(CCCC2)C1 [TRV130, reference compound]
arrestin recruitment with over-expressed GRK2 [5]: we observe arrestin recruitment
conditioned place preference [12]: not significant relative to vehicle
κOR agonist activity [17]: activates KOR with similar potency to morphine
β-arrestin2 recruitment in the absence of GRK2 [7]: no β-arrestin2 recruitment
respiration frequency / respiratory depression [26]: significantly depresses respiration at 15 minutes

CCN1CCC[C@@H](NC(=O)NCCc2ccc(OC(C)C)cc2)C1 [compound 6]
Ki [27]: 10000 nM

O=C(Cc1cn2ccccc2n1)NCC1(c2ccccc2)CCC1 [compound 9]
μOR binding, given as <50% [28]: <50%

CN(Cc1nnc(C2CC2)n1C)C(=O)NC[C@@H](Cc1ccccc1)N(C)C [compound 10]
κOR binding, given as <50% [29]: <50%

CN(C)[C@@H](CNC(=O)NC[C@@H](O)c1cnn(C)c1)Cc1ccccc1 [compound 11]
κOR binding, given as <50% [29]: <50%

C[C@H](Cc1ccsc1)NC(=O)NC[C@@H](Cc1ccccc1)N(C)C [compound 12]
Emax ([8]; read-out: Arrestin recruitment (PathHunter) Emax (%) μOR): 9.4%
Emax ([6]; read-out: Gi/o (Glosensor) Emax (%) μOR): 88%
Emax ([23]; read-out: Gi/o (Glosensor) Emax (%) nociceptin): 43%

Cc1nc(CNC(=O)NC[C@@H](Cc2ccccc2)N(C)C)sc1C [compound 15]
κOR binding, given as <50% [29]: <50%
